Assay type in all cases: cell-based
The subject of one test is KARPAS-620 cell line. The experiment in a line: Proliferation assay. The following applies: p-ERK High, read-out: IC50 (μM) Trametinib. Here is the method:
(§1) Proliferation and viability assays: Cell growth curves were determined by monitoring the viability of cells with Trypan blue exclusion on a Vi-Cell-XR (Becton Dickinson, Franklin Lakes, N.J., USA). Proliferation assays were performed in triplicate at least three times (n=3) using (3H)-thymidine incorporation. All data were plotted and analyzed using GraphPad Prism 7 (GraphPad Software, La Jolla, Calif., USA) software, represented as the mean with an error determined as ±s.d.

A further test deals with KMS-20 cell line. As to the kind of experiment: Proliferation assay. The following applies: KRAS G12S, p-ERK High, read-out: IC50 (μM) Trametinib. How it is done:
as §1

The test system of the next test is U266 cell line. As to the kind of experiment: Proliferation assay. The settings on record: Homo sapiens, U-266, BRAF K601N, p-ERK High, read-out: IC50 (μM) Trametinib. How it is done:
as §1

The test system of a further test is KMM-1 cell line. The experiment in a line: Proliferation assay. The following applies: NRAS G13D, p-ERK High, read-out: IC50 (μM) Trametinib. Here is the method:
as §1

Another test concerns MOLP-8 cell line. The experiment in a line: Proliferation assay. The settings on record: Homo sapiens, KRAS K180del, NRAS p.Q61L, p-ERK High, read-out: IC50 (μM) Trametinib. Here is the method:
as §1

A further test relates to AMO1 cell line. The experiment in a line: Proliferation assay. How it is done: as §1
(§2) Proliferation and viability assay. Cell growth curves were determined by monitoring the viability of cells with Trypan blue exclusion on a Vi-Cell-XR (Becton Dickinson, Franklin Lakes, N.J., USA). Cell lines were plated in triplicate in 96-well round-bottom plates with the indicated drug concentrations or knockdown cells. […] All data were plotted and analyzed using GraphPad Prism 7 (GraphPad Software, La Jolla, Calif., USA) software, represented as the mean with an error determined as ±s.d.

The subject of the next test is Mc-CAR cell line. The experiment in a line: Proliferation assay. The following applies: McCAR; WT; p-ERK High; read-out: IC50 (μM) Trametinib. Here is the method: as §1
(§3) Proliferation and viability assay. Cell growth curves were determined by monitoring the viability of cells with Trypan blue exclusion on a Vi-Cell-XR (Becton Dickinson, Franklin Lakes, N.J., USA). Cell lines were plated in triplicate in 96-well round-bottom plates with the indicated drug concentrations or knockdown cells. Proliferation assays were performed in triplicate at least three times (n=3) using either the WST-1 tetrazolium salt (Roche Applied Science) reagent used according to the manufacturer's specifications or by (3H)-thymidine incorporation as previously described (Bjorklund et al., Blood Cancer Journal 5, e354, 2015). All data were plotted and analyzed using GraphPad Prism 7 (GraphPad Software, La Jolla, Calif., USA) software, represented as the mean with an error determined as ±s.d.

The test system of a further test is H929 cell line. As to the kind of experiment: Proliferation assay. The settings on record: Homo sapiens, NCI-H929, NRAS G13D, p-ERK Medium, read-out: IC50 (μM) Trametinib. How it is done:
as §1, §3

Test [1] has as its system FOXM1 in K12PE-PR cell line. As to the kind of experiment: FOXM1 expression after BIRC5 inhibition. The following applies: FIG. 26B. An excerpt:
(§4) Inhibition of BIRC5 by YM155 also downregulates FOXM1 and pro-survival signaling.

The subject of test [2] is FOXM1 in AMO1-PR cell line. As to the kind of experiment: FOXM1 expression after BIRC5 inhibition. The settings on record: FIG. 26B.
From the text: as §4

The subject of a further test is K12PE cell line. The experiment in a line: Proliferation assay. How it is done: as §1, §2
A further test deals with K12PE-PR cell line. The experiment in a line: Proliferation assay. Here is the method: as §1, §2
Test [3] has as its system AMO1-PR (pomalidomide resistant) cell line. As to the kind of experiment: Proliferation assay. How it is done:
as §1, §2

For test [4], the system named is BIRC5 (Survivin) in MM1.S cell line. The experiment in a line: BIRC5 levels in response to Compound 5. The settings on record: 48 and 72 hours, followed by onset of apoptosis. How it is done:
BIRC5 levels decreased in response to Compound 5 treatment at 48 and 72 hours, followed by an onset of apoptosis in MM1.S cell line (FIG. 23B).

The test system of test [5] is AMO1 NEK2 shRNA (NEK2 knocked-down) cells. The experiment in a line: Proliferation assay in NEK2 knocked-down cells. How it is done: as §3
(§5) To further confirm the synergistic effect, shRNA knockdown was combined with either Compound 5 or Compound 6 treatment. Expression of control and NEK2 shRNA in AMO1 cell lines was induced, followed by exposure of the cells to increasing concentrations of Compound 5 and Compound 6. The results were measured through a proliferation assay.

In a further test the test system is AMO1 cells. The experiment in a line: Apoptosis by Annexin V and Topro staining. The settings on record: AMO-1 cells. How it is done:
(§6) Flow cytometry: Annexin-V Alexa Fluor 488-conjugated antibody (Thermo Scientific, Waltham, Mass., USA) and To-Pro-3 (Thermo Scientific, Waltham, Mass., USA) were used according to the manufacturer's protocol and processed using Flow Jo software for at least three independent experiments. For cell cycle analysis, cells were stained with Propidium Iodide (PI) staining kit (Abcam, Cambridge, Mass., USA) and analysis was performed on Flow Jo V10 software. Staining of mitotic marker pHH3-Ser^10 was also performed by pHH3-Ser^10 and PI dual staining.
The PLK1 inhibitor BI2536 and Compound 5 were tested for their activity as individual agents and in combination in AMO1 parental and AMO1-PR cell lines. […] Changes in apoptosis were analyzed using the single agent treatments and their combination using Annexin V and Topro staining. […] Changes in Ikaros and pro-survival signaling in these cell lines was analyzed in response to BI2536 and Compound 5 after 24 and 72 hours of treatment (FIG. 5K).

The next test concerns MM cell lines. As to the kind of experiment: Cell cycle analysis (PI staining, flow cytometry) in response to Compound 5. The settings on record: for sub-G1 population: vehicle 5.02, cell line not named; for G2-M population: vehicle 16.3; for G0-G1 population: vehicle 69.2. How it is done:
as §6
(§7) The changes in phospho Ser10-histone H3 which is a specific marker for G2-M phase using flow cytometry were measured. […] Nocodazole synchronizes cells in G2-M phase of cell cycle. At time points 30 minutes, 2 hours and 6 hours post rescue from overnight Nocodazole treatment, PLK1 levels were higher compared to vehicle condition (FIG. 3). Then, due to rescue from cell cycle synchronization post Nocodazole treatment, PLK1 levels normalized. In response to Compound 5 treatment, while Ikaros degradation began to happen after 30 minutes of treatments, downregulation of PLK1 and CDC25C levels was evident at 48 hours post treatment. In response to Nocodazole and Compound 5 combination treatment, the decrease in PLK1 levels was accelerated. Changes in cleaved caspase 3 inversely correlated with PLK1 levels, with an increase in cleaved caspase 3 at 48 and 72 hours post Compound 5 treatment with a decrease in PLK1 levels. Cell cycle studies matched with these time points. […] In case of Nocodazole and Compound 5 combination treatment, an accelerated decrease in G2-M cells and a higher increase in sub-G1 cells was observed.

For another test, the system named is phospho Ser10-histone H3. The experiment in a line: phospho Ser10-histone H3 (G2-M marker) flow cytometry. The following applies: vehicle 16.5. How it is done: as §6, §7
Background: Flow cytometry measures light scatter and fluorescence of single cells or particles in a stream.

The next test concerns AMO1 control shRNA cells. As to the kind of experiment: Proliferation assay in control shRNA cells. The settings on record: Homo sapiens; control shRNA AMO1 cells; read-out: IC50, proliferation. How it is done:
as §3, §5

In test [6] the test system is PLK1 signaling in MM1.S cells. As to the kind of experiment: Immunoblot of PLK1 signaling. The following applies: FIG. 2C. Here is the method:
Immunoblotting: Immunoblot analysis was performed using WES kits, (Protein Simple, San Jose, Calif., USA) at least two times each (n≥2), where the best representative is shown.
The effects of pomalidomide in isogenic sensitive (EJM) and resistant (EJM-PR) and MM1.S cell lines was analyzed. […] To determine the role of PLK1 in pomalidomide response, EJM and EJM-PR cell lines were treated with pomalidomide and analyzed changes in PLK1 levels and downstream signaling. […] The changes in PLK1 transcript levels were further examined in response to pomalidomide treatment in MM1. […] Confocal microscopy was performed to study changes in PLK1 and CDC25C staining in MM1.S cells and a decrease in PLK1 levels and simultaneous decrease in CDC25C staining in response to pomalidomide and Compound 5 treatments was observed. […] Further analysis of the ChIP-seq datasets of Aiolos confirmed binding of Aiolos on TSS of PLK1 with overlapping transcriptional activation H3K27Ac signature extrapolated from publicly available ChIP-seq datasets in GM12878 cell line (Encode project). Since changes in PLK1 levels are due to decrease in PLK1 transcription in response to antiproliferative compounds, the effects of Aiolos and Ikaros knockdowns on PLK1 levels using MM1.S cells with inducible expression of Aiolos and Ikaros shRNAs were analyzed. Both Aiolos and Ikaros knock down lead to a decrease in PLK1 levels (FIG. 2F), indicating transcriptional regulation of PLK1 by substrates of Cereblon.
A general note: A western blot detects proteins with antibodies after separation by electrophoresis.

The source of these data is US20230255975A1, “METHODS FOR TREATING CANCER WITH COMBINATION THERAPIES” (Celgene Corporation, priority 2020, published 2023).

As for `CC(=O)Nc1cccc(-n2c(=O)n(C3CC3)c(=O)c3c(Nc4ccc(I)cc4F)n(C)c(=O)c(C)c32)c1` [Trametinib], the IC50 was 0.07 nM in the test on KARPAS-620 cell line; 0.00222 µM in the test on KMS-20 cell line; 0.000353 µM in the test on U266 cell line; 0.00169 µM in the test with KMM-1 cell line; 0.0117 µM in the test with MOLP-8 cell line; 0.0012 µM in the test on AMO1 cell line (Homo sapiens, Amo1, KRAS146T, p-ERK High, read-out: IC50 (μM) Trametinib). The IC50 in the test with Mc-CAR cell line came out at 0.0031 µM; in the test with H929 cell line, 0.00328 µM.
By EC50 is commonly meant the concentration giving half of the maximal effect. A low value points to a more potent agent. Take `COCCn1c2c([n+](Cc3cnccn3)c1C)C(=O)c1ccccc1C2=O.[Br-]` [YM155, 1-(2-methoxyethyl)-2-methyl-4,9-dioxo-3-(pyrazin-2-ylmethyl)-4,9-dihydro-1H-naphtho[2,3-d]imidazol-3-ium bromide]: the FOXM1 expression entry in [1] and in test [2] was “downregulated FOXM1 expression in a dose dependent manner” throughout. For the same compound, the EC50 was 1.09 nM in the test with AMO1 cell line (Homo sapiens, AMO1, BIRC5 inhibitor); 1.47 nM in the test with K12PE cell line (K12PE, BIRC5 inhibitor); 1.07 nM in the test with K12PE-PR cell line (K12PE-PR, BIRC5 inhibitor); 0.12 nM in test [3] (BIRC5 inhibitor).
Take `O=C1CC[C@H](N2Cc3c(OCc4ccc(CN5CCOCC5)cc4)cccc3C2=O)C(=O)N1` [Compound 5, (S)-3-(4-((4-(morpholinomethyl)benzyl)oxy)-1-oxoisoindolin-2-yl)piperidine-2,6-dione]: in test [4], the BIRC5 levels entry was “decreased”. For the same compound, the IC50 in [5] (Homo sapiens, NEK2 knocked-down AMO1 cells) came out at 18.7 nM; in the test on AMO1 control shRNA cells it was 105 nM. In addition, the “Increase of activity by NEK2 knockdown in comparison to control shRNA cell line” value in test [5] (IC50 control cells vs NEK2 knocked-down cells) turned out to be 5 fold. Also, the late apoptosis in the test with AMO1 cells (vehicle 2.24%) is 3.07%. For the same compound, in the test on AMO1 cells (vehicle 2.69%), the early apoptosis worked out at 4.86%. In addition, the “Synergy (Calcusyn) with NEK2 inhibitors (JH295 and rac-CCT 250863) on proliferation” value in the test on AMO1 cell line (AMO1, NEK2 inhibitor 0.016-10 μM) is “strong synergy”; in test [3] (NEK2 inhibitor 0.016-10 μM), “strong synergy”. Besides, the “Combination analysis (Calcusyn) with YM155 on proliferation” value in the test with AMO1 cell line (AMO1, in combination with YM155) is given as “synergistic activity”; in [3] (in combination with YM155), “synergistic activity”. Moreover, the “Synergy with trametinib on proliferation” value in the test with AMO1 cell line (AMO1, in combination with trametinib) is “strong synergy”; in [3] (in combination with trametinib) it was “strong synergy”. In addition, the “Synergy analysis (Calcusyn) of combination with JQ1 on proliferation” value in the test on K12PE cell line (K12PE cells, in combination with JQ1) is on record as “synergistic”. The “Synergy of combination with JQ1 on proliferation” value with K12PE-PR cell line (Pom resistant K12PE-PR, in combination with JQ1) is reported as “synergistically decreased proliferation”. In addition, the sub-G1 population is 4.98 in the test on MM cell lines (10 nM), 11.3 with MM cell lines (30 nM) and 13.9 in the test on MM cell lines (100 nM). For the same compound, the G2-M population is listed as 12.3 in the test on MM cell lines (10 nM), 6.94 in the test with MM cell lines (30 nM) and 6.27 in the test on MM cell lines (100 nM). For the same compound, the figures for the G0-G1 population in the test on MM cell lines (10 nM), in the test with MM cell lines (30 nM) and in the test on MM cell lines (100 nM) were 75.8, 78.3 and 75.1, respectively. Moreover, the “levels of phospho Ser10-histone H3” value with phospho Ser10-histone H3 (10 nM) stood at 9.3; in the test on phospho Ser10-histone H3 (30 nM), 6.37; in the test with phospho Ser10-histone H3 (100 nM), 4.53. Moreover, the “Dose giving decrease in PLK1 levels and downstream signaling relative to pomalidomide” value in test [6] was “ten times lower dose”. In test [6] (MMS.1 cells, increasing concentrations), the PLK1 signaling entry was “dose dependent decrease”.
